Laboratory results taken from patent US7998940B2, “Aptamers to von Willebrand factor and their use as thrombotic disease therapeutics” (Archemix Corp., priority 2004, dated 2011).
Oligonucleotides are written 5' to 3', each unit as a sugar letter and its base; * is a phosphorothioate linkage, no mark a phosphodiester; rarer units and linkages stand in square brackets, end groups in braces. Plain capitals give the bases only. [invdT] = inverted (3'-3') thymidine; d = 2'-deoxy (DNA); m = 2'-O-methyl

Test system: full length human vWF (SEQ ID NO 7)
Assay: dot blot KD determination and extent of binding, full length human vWF;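 also: dot blot binding of aptamers to full length human vWF across a protein titration, incubated 30 minutes at room temperature in 1x DPBS with BSA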
Details: for % binding @ 100 nM vWF / Kd: Phase 1 modification; for % binding @ 100 nM vWF: extent of aptamer binding at 100 nM full length human vWF; for Kd: full length human vWF, 8 point protein titration, read-out: KD

Row | Substance | % binding @ 100 nM vWF [%] | Kd (dot blot) [nM] | binding to human vWF (in words, dot blot)
1 | ARC1115: ARC1029 with PEG spacer replaced with a short oligonucleotide sequence, dTdTdC (DNA GGCGTGCAGTGCCTTCGGCCGTGCGGTGCCTCCGTCACGCC; unmodified DNA) | 36 | 2 | shown to bind
2 | ARC1194: ARC1172 with one residue replaced by 2'-O methyl residue (DNA mGdGdCdGdTdGdCdAdGdTdGdCdCdTdTdCdGdGdCdCdGdTdGdCdGdGdTdGdCdCdTdCdCdGdTdCdAdCdGdCdC[invdT]; aptamer) | 46 | 3 | –
3 | ARC1195: ARC1172 with one residue replaced by 2'-O methyl residue (DNA dGmGdCdGdTdGdCdAdGdTdGdCdCdTdTdCdGdGdCdCdGdTdGdCdGdGdTdGdCdCdTdCdCdGdTdCdAdCdGdCdC[invdT]; aptamer) | 55 | 1 | –
4 | ARC1196: ARC1172 with one residue replaced by 2'-O methyl residue (DNA dGdGmCdGdTdGdCdAdGdTdGdCdCdTdTdCdGdGdCdCdGdTdGdCdGdGdTdGdCdCdTdCdCdGdTdCdAdCdGdCdC[invdT]; aptamer) | 46 | 2 | –
5 | ARC1197: ARC1172 with one residue replaced by 2'-O methyl residue (DNA dGdGdCmGdTdGdCdAdGdTdGdCdCdTdTdCdGdGdCdCdGdTdGdCdGdGdTdGdCdCdTdCdCdGdTdCdAdCdGdCdC[invdT]; aptamer) | 46 | 2 | –
6 | ARC1198: ARC1172 with one residue replaced by 2'-O methyl residue (DNA dGdGdCdGmUdGdCdAdGdTdGdCdCdTdTdCdGdGdCdCdGdTdGdCdGdGdTdGdCdCdTdCdCdGdTdCdAdCdGdCdC[invdT]; aptamer) | 50 | 0.9 | –
7 | ARC1199: ARC1172 with one residue replaced by 2'-O methyl residue (DNA dGdGdCdGdTmGdCdAdGdTdGdCdCdTdTdCdGdGdCdCdGdTdGdCdGdGdTdGdCdCdTdCdCdGdTdCdAdCdGdCdC[invdT]; aptamer) | 28 | 19 | –
8 | ARC1200: ARC1172 with one residue replaced by 2'-O methyl residue (DNA dGdGdCdGdTdGmCdAdGdTdGdCdCdTdTdCdGdGdCdCdGdTdGdCdGdGdTdGdCdCdTdCdCdGdTdCdAdCdGdCdC[invdT]; aptamer) | 25 | 5 | –
9 | ARC1201: ARC1172 with one residue replaced by 2'-O methyl residue (DNA dGdGdCdGdTdGdCmAdGdTdGdCdCdTdTdCdGdGdCdCdGdTdGdCdGdGdTdGdCdCdTdCdCdGdTdCdAdCdGdCdC[invdT]; aptamer) | 6 | 0.9 | –
10 | ARC1202: ARC1172 with one residue replaced by 2'-O methyl residue (DNA dGdGdCdGdTdGdCdAmGdTdGdCdCdTdTdCdGdGdCdCdGdTdGdCdGdGdTdGdCdCdTdCdCdGdTdCdAdCdGdCdC[invdT]; aptamer) | 56 | 0.4 | –
11 | ARC1203: ARC1172 with one residue replaced by 2'-O methyl residue (DNA dGdGdCdGdTdGdCdAdGmUdGdCdCdTdTdCdGdGdCdCdGdTdGdCdGdGdTdGdCdCdTdCdCdGdTdCdAdCdGdCdC[invdT]; aptamer) | 40 | 3 | –
12 | ARC1204: ARC1172 with one residue replaced by 2'-O methyl residue (DNA dGdGdCdGdTdGdCdAdGdTmGdCdCdTdTdCdGdGdCdCdGdTdGdCdGdGdTdGdCdCdTdCdCdGdTdCdAdCdGdCdC[invdT]; aptamer) | 45 | 2 | –
13 | ARC1205: ARC1172 with one residue replaced by 2'-O methyl residue (DNA dGdGdCdGdTdGdCdAdGdTdGmCdCdTdTdCdGdGdCdCdGdTdGdCdGdGdTdGdCdCdTdCdCdGdTdCdAdCdGdCdC[invdT]; aptamer) | 50 | 1 | –
14 | ARC1206: ARC1172 with one residue replaced by 2'-O methyl residue (DNA dGdGdCdGdTdGdCdAdGdTdGdCmCdTdTdCdGdGdCdCdGdTdGdCdGdGdTdGdCdCdTdCdCdGdTdCdAdCdGdCdC[invdT]; aptamer) | 50 | 2 | –
15 | ARC1207: ARC1172 with one residue replaced by 2'-O methyl residue (DNA dGdGdCdGdTdGdCdAdGdTdGdCdCmUdTdCdGdGdCdCdGdTdGdCdGdGdTdGdCdCdTdCdCdGdTdCdAdCdGdCdC[invdT]; aptamer) | 54 | 2 | –
16 | ARC1208: ARC1172 with one residue replaced by 2'-O methyl residue (DNA dGdGdCdGdTdGdCdAdGdTdGdCdCdTmUdCdGdGdCdCdGdTdGdCdGdGdTdGdCdCdTdCdCdGdTdCdAdCdGdCdC[invdT]; aptamer) | 45 | 2 | –

Row | Substance | % binding @ 100 nM vWF [%] | Kd (dot blot) [nM] | binding to human vWF (in words, dot blot)
17 | ARC1209: ARC1172 with one residue replaced by 2'-O methyl residue (DNA dGdGdCdGdTdGdCdAdGdTdGdCdCdTdTmCdGdGdCdCdGdTdGdCdGdGdTdGdCdCdTdCdCdGdTdCdAdCdGdCdC[invdT]; aptamer) | 44 | 2 | –
18 | ARC1210: ARC1172 with one residue replaced by 2'-O methyl residue (DNA dGdGdCdGdTdGdCdAdGdTdGdCdCdTdTdCmGdGdCdCdGdTdGdCdGdGdTdGdCdCdTdCdCdGdTdCdAdCdGdCdC[invdT]; aptamer) | 49 | 2 | –
19 | ARC1211: ARC1172 with one residue replaced by 2'-O methyl residue (DNA dGdGdCdGdTdGdCdAdGdTdGdCdCdTdTdCdGmGdCdCdGdTdGdCdGdGdTdGdCdCdTdCdCdGdTdCdAdCdGdCdC[invdT]; aptamer) | 47 | 2 | –
20 | ARC1212: ARC1172 with one residue replaced by 2'-O methyl residue (DNA dGdGdCdGdTdGdCdAdGdTdGdCdCdTdTdCdGdGmCdCdGdTdGdCdGdGdTdGdCdCdTdCdCdGdTdCdAdCdGdCdC[invdT]; aptamer) | 49 | 2 | –
21 | ARC1213: ARC1172 with one residue replaced by 2'-O methyl residue (DNA dGdGdCdGdTdGdCdAdGdTdGdCdCdTdTdCdGdGdCmCdGdTdGdCdGdGdTdGdCdCdTdCdCdGdTdCdAdCdGdCdC[invdT]; aptamer) | 43 | 6 | –
22 | ARC1214: ARC1172 with one residue replaced by 2'-O methyl residue (DNA dGdGdCdGdTdGdCdAdGdTdGdCdCdTdTdCdGdGdCdCmGdTdGdCdGdGdTdGdCdCdTdCdCdGdTdCdAdCdGdCdC[invdT]; aptamer) | 39 | 3 | –
23 | ARC1215: ARC1172 with one residue replaced by 2'-O methyl residue (DNA dGdGdCdGdTdGdCdAdGdTdGdCdCdTdTdCdGdGdCdCdGmUdGdCdGdGdTdGdCdCdTdCdCdGdTdCdAdCdGdCdC[invdT]; aptamer) | 2 | 3 | –
24 | ARC1216: ARC1172 with one residue replaced by 2'-O methyl residue (DNA dGdGdCdGdTdGdCdAdGdTdGdCdCdTdTdCdGdGdCdCdGdTmGdCdGdGdTdGdCdCdTdCdCdGdTdCdAdCdGdCdC[invdT]; aptamer) | 40 | 0.6 | –
25 | ARC1217: ARC1172 with one residue replaced by 2'-O methyl residue (DNA dGdGdCdGdTdGdCdAdGdTdGdCdCdTdTdCdGdGdCdCdGdTdGmCdGdGdTdGdCdCdTdCdCdGdTdCdAdCdGdCdC[invdT]; aptamer) | 18 | 14 | –
26 | ARC1218: ARC1172 with one residue replaced by 2'-O methyl residue (DNA dGdGdCdGdTdGdCdAdGdTdGdCdCdTdTdCdGdGdCdCdGdTdGdCmGdGdTdGdCdCdTdCdCdGdTdCdAdCdGdCdC[invdT]; aptamer) | 2 | 32 | –
27 | ARC1219: ARC1172 with one residue replaced by 2'-O methyl residue (DNA dGdGdCdGdTdGdCdAdGdTdGdCdCdTdTdCdGdGdCdCdGdTdGdCdGmGdTdGdCdCdTdCdCdGdTdCdAdCdGdCdC[invdT]; aptamer) | 33 | 3 | –
28 | ARC1220: ARC1172 with one residue replaced by 2'-O methyl residue (dGdGdCdGdTdGdCdAdGdTdGdCdCdTdTdCdGdGdCdCdGdTdGdCdGdGmUdGdCdCdTdCdCdGdTdCdAdCdGdCdC[invdT]; aptamer) | 17 | 11 | –
29 | ARC1221: ARC1172 with one residue replaced by 2'-O methyl residue (dGdGdCdGdTdGdCdAdGdTdGdCdCdTdTdCdGdGdCdCdGdTdGdCdGdGdTmGdCdCdTdCdCdGdTdCdAdCdGdCdC[invdT]; aptamer) | 43 | 1 | –
30 | ARC1222: ARC1172 with one residue replaced by 2'-O methyl residue (dGdGdCdGdTdGdCdAdGdTdGdCdCdTdTdCdGdGdCdCdGdTdGdCdGdGdTdGmCdCdTdCdCdGdTdCdAdCdGdCdC[invdT]; aptamer) | 40 | 0.9 | –
31 | ARC1223: ARC1172 with one residue replaced by 2'-O methyl residue (dGdGdCdGdTdGdCdAdGdTdGdCdCdTdTdCdGdGdCdCdGdTdGdCdGdGdTdGdCmCdTdCdCdGdTdCdAdCdGdCdC[invdT]; aptamer) | 26 | 36 | –
32 | ARC1224: ARC1172 with one residue replaced by 2'-O methyl residue (dGdGdCdGdTdGdCdAdGdTdGdCdCdTdTdCdGdGdCdCdGdTdGdCdGdGdTdGdCdCmUdCdCdGdTdCdAdCdGdCdC[invdT]; aptamer) | 47 | 0.5 | –
